According to paper PMC9736874, “Development of Hydroxamate Derivatives Containing a Pyrazoline Moiety as APN Inhibitors to Overcome Angiogenesis” (Molecules, 2022):

How the values were obtained:
[1] = test system: U937 cells; experiment: Anti-proliferative assay (MTT), U937; format: cell-based; settings: Homo sapiens, U-937, 48 h, triplicate, mean ± SD
Protocol: (§1) The MTT method was used for the determination of anti-proliferative activities of selected compounds against tumor cells. Human histiocytic lymphoma cells U937, human chronic myeloid leukemia cells K562, liver carcinoma alexander cells PLC/PRF/5, human prostate cancer cells PC-3, human ovarian clear cell carcinoma cells ES-2, human hepatocellular carcinoma cells HepG2 were selected as tested tumor cell lines. Firstly, the cells were cultured in RPMI 1640 medium with 10% FBS at 37 °C in 5% CO2 humidified incubator. Cells (100 μL) in logarithmic phase were inoculated in 96-well plates and allowed to grow for 4 h. Subsequently, inhibitors (100 μL) at the tested concentration were added, followed by incubation for 48 h. Then, to the mixture was added MTT solution (20 μL, 5 mg/mL) and further incubated for 4 h. The plates were centrifuged at 800 rpm for 3 min. The supernatant was poured off and the formed formazan was dissolved in DMSO (200 μL). Finally, the mixture was shaken for 15 min and the absorbance values of the formazan solution were measured at 570 nm with a plate reader (Varioskan, Thermo, Waltham, MA, USA). All the tumor cells were owned by our laboratory.

[2] = test system: K562 cells; experiment: Anti-proliferative assay (MTT), K562; format: cell-based; settings: Homo sapiens, 48 h, triplicate, mean ± SD
Protocol: as §1

[3] = test system: PLC/PRF/5 cells; experiment: Anti-proliferative assay (MTT), PLC/PRF/5; format: cell-based; settings: Homo sapiens, 48 h, triplicate, mean ± SD
Protocol: as §1

[4] = test system: PC-3 cells; experiment: Anti-proliferative assay (MTT), PC-3; format: cell-based; settings: Homo sapiens, 48 h, triplicate, mean ± SD
Protocol: as §1

[5] = test system: ES-2 cells; experiment: Anti-proliferative assay (MTT), ES-2; format: cell-based; settings: Homo sapiens, 48 h, triplicate, mean ± SD
Protocol: as §1

[6] = test system: HepG2 cells; experiment: Anti-proliferative assay (MTT), HepG2; format: cell-based; settings: Homo sapiens, 48 h, triplicate, mean ± SD
Protocol: as §1

[7] = molecular target: T1, porcine kidney aminopeptidase N (APN) (Sus scrofa, UniProt P15145); experiment: Enzymatic inhibition assay against APN in vitro (L-Leu-p-nitroanilide substrate); format: biochemical; settings: for IC50: soluble APN from porcine kidney microsomal, 37 °C, 30 min, triplicate, mean ± SD
T1 construct: purchased Enzo Life Sciences; host or cells: porcine kidney microsomes (tissue-derived)
T1 sequence (P15145 1-963): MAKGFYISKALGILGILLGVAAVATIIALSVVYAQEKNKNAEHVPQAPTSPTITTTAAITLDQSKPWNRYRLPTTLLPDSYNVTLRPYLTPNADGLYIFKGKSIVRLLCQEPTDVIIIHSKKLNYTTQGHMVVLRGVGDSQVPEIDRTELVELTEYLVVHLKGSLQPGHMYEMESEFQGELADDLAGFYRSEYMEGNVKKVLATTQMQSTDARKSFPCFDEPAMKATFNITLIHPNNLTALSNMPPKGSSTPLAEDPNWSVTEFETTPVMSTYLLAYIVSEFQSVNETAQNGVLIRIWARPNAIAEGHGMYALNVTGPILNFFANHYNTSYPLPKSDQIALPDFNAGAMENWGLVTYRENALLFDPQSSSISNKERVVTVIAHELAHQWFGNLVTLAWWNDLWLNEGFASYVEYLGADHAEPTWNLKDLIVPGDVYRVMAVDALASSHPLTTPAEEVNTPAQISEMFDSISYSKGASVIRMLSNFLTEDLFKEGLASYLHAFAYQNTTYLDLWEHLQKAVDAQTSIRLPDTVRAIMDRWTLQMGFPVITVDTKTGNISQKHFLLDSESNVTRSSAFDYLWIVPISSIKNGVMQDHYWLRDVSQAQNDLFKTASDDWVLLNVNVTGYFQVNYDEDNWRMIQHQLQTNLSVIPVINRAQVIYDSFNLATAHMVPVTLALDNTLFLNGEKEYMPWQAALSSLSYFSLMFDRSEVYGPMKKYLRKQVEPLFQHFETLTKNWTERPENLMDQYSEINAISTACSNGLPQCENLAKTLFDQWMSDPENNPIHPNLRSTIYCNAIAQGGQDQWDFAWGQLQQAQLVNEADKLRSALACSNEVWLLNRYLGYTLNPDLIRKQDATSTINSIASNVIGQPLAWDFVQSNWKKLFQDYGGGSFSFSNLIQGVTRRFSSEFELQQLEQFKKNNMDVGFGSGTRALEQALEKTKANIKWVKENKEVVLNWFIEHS
Protocol: The enzymatic inhibitory activities of target compounds were evaluated using L-Leu-p-nitroanilide (Sigma-Aldrich, St. Louis, MO, USA) as substrate and soluble APN from porcine kidney microsomal (Enzo Life Sciences, Farmingdale, NY, USA) as enzyme. Firstly, the substrate was dissolved in DMSO to a concentration of 16 mmol/L and the enzyme was dissolved in buffer solution of 50 mM PBS (pH = 7.2) for a concentration of 0.15 IU/L. Subsequently, inhibitors (40 μL) and PBS (145 μL) were added into the 96-well plates, followed by the addition of substrate (5 μL) and enzyme (10 μL). After incubation at 37 °C for 30 min, the absorbance values were measured at 405 nm with a plate reader (Varioskan, Thermo Fisher Scientific, Waltham, MA, USA).

[8] = test system: rat thoracic aorta rings; experiment: Rat aortic ring assay (ex vivo anti-angiogenesis); format: cell-based, Sprague Dawley rats
Protocol: The thoracic aortas were separated from 8- to 10-week-old male Sprague Dawley rats and cut into rings with a 1-mm-long cross-section after removal of the connective tissues around the aortas. The fresh aortic ring was added into the 96-well plates pre-coated with matrigel (50 μL, BD bioscience), and covered with another 50 μL of matrigel. After incubation at 37 °C in 5% CO2 for 0.5 h, the tested compounds (100 μL) in M199 culture medium with 10% FBS was added to the mixture and incubated at 37 °C in 5% CO2 for 9 d. For the treatment group, the M199 culture medium with 10% FBS and inhibitors was changed every three days. For the control group, the M199 culture medium with 10% FBS and 0.5% DMSO was changed every three days. The formed micro-vessels were photographed by inverted microscope at 100× magnification. Experiments were repeated three times. All experiments involving laboratory animals were performed with the approval of the Laboratory Animal Welfare Review Committee of Shandong University of Traditional Chinese Medicine.

Row | IC50 [7] [nM] | melting point [°C] | SMILES | also measured
1 |  |  | CC(C)C[C@H](NC(=O)[C@@H](O)[C@H](N)Cc1ccccc1)C(=O)O [Bestatin, bestatin, reference compound] | IC50 [1]: > 500000 nM; IC50 [2]: > 500000 nM; IC50 [3]: > 500000 nM; IC50 [4]: > 500000 nM; IC50 [5]: > 500000 nM; IC50 [6]: > 500000 nM
2 | 6.2 ± 0.4 | 174 to 176 | CC(=O)N1N=C(c2c(Cl)cccc2Cl)CC1c1ccccc1OCC(=O)NO (centres unmarked) [Compound 14o, 2-(2-(1-Acetyl-3-(2,6-dichlorophenyl)-4,5-dihydro-1H-pyrazol-5-yl)phenoxy)-N-hydroxyacetamide] | fold more potent against APN than lead compound 13c ([7]; ratio of APN IC50 values): over 9 fold; fold more potent against APN than positive control bestatin ([7]; ratio of APN IC50 values): over 1419 fold; IC50 [1]: 38300 ± 3600 nM; IC50 [2]: 10400 ± 1200 nM; IC50 [3]: 88500 ± 7400 nM; IC50 [4]: 45800 ± 4100 nM; IC50 [5]: 115000 ± 9700 nM; IC50 [6]: 84200 ± 7600 nM; growth of micro-vessels derived from the thoracic aorta rings ([8]; 1 μM and 50 μM, 9 d incubation): could prevent the growth of micro-vessels derived from the thoracic aorta rings in a dose–dependent manner; micro-vessels at 50 μM compared with the group treated with 1 μM ([8]; 50 μM, 9 d incubation): obviously reduced micro-vessels; anti-angiogenic activity compared with bestatin ([8]; same concentration of 50 μM): much better than that of bestatin
3 | 58 ± 3 | 120 to 122 | NC(=O)N1N=C(c2ccccc2OCc2cccc(Br)c2)CC1c1ccccc1OCC(=O)NO (centres unmarked) [Compound 14ff, 3-(2-((3-Bromobenzyl)oxy)phenyl)-5-(2-(2-(hydroxyamino)-2-oxoethoxy)phenyl)-4,5-dihydro-1H-pyrazole-1-carboxamide] | 
4 | 3800 ± 200 | 120 to 122 | COc1ccc(C2=NN(C(C)=O)C(c3ccccc3OCC(=O)NO)C2)cc1 (centres unmarked) [Compound 14f, 2-(2-(1-Acetyl-3-(4-methoxyphenyl)-4,5-dihydro-1H-pyrazol-5-yl)phenoxy)-N-hydroxy acetamide] | 
5 | 23 ± 1 | 168 to 170 | CC(=O)N1N=C(c2ccccc2I)CC1c1c(Cl)cccc1OCC(=O)NO (centres unmarked) [Compound 14y, 2-(2-(1-Acetyl-3-(2-iodophenyl)-4,5-dihydro-1H-pyrazol-5-yl)-3-chlorophenoxy)-N-hydroxyacetamide] | 
6 | 29 ± 2 | 166 to 168 | CC(=O)N1N=C(c2ccccc2Cl)CC1c1ccccc1OCC(=O)NO (centres unmarked) [Compound 14h, 2-(2-(1-Acetyl-3-(2-chlorophenyl)-4,5-dihydro-1H-pyrazol-5-yl)phenoxy)-N-hydroxy acetamide] | 
7 | 540 ± 40 | 202 to 204 | NC(=O)N1N=C(c2ccccc2I)CC1c1cc(Br)ccc1OCC(=O)NO (centres unmarked) [Compound 14v, 5-(5-Bromo-2-(2-(hydroxyamino)-2-oxoethoxy)phenyl)-3-(2-iodophenyl)-4,5-dihydro-1H-pyrazole-1-carboxamide] | 
8 | 31 ± 2 | 164 to 166 | CC(=O)N1N=C(c2ccccc2OCc2cccc(Br)c2)CC1c1ccccc1OCC(=O)NO (centres unmarked) [Compound 14ee, 2-(2-(1-Acetyl-3-(2-((3-bromobenzyl)oxy)phenyl)-4,5-dihydro-1H-pyrazol-5-yl)phenoxy)-N-hydroxyacetamide] | 
9 | 320 ± 30 | 152 to 154 | CC(=O)N1N=C(c2cccc(Br)c2)CC1c1ccccc1OCC(=O)NO (centres unmarked) [Compound 14b, 2-(2-(1-Acetyl-3-(3-bromophenyl)-4,5-dihydro-1H-pyrazol-5-yl)phenoxy)-N-hydroxy acetamide] | 
10 | 46 ± 3 | 162 to 164 | CC(=O)N1N=C(c2ccccc2Br)CC1c1ccccc1OCC(=O)NO (centres unmarked) [Compound 14a, 2-(2-(1-Acetyl-3-(2-bromophenyl)-4,5-dihydro-1H-pyrazol-5-yl)phenoxy)-N-hydroxy acetamide] | 
11 | 310 ± 20 | 198 to 200 | CC(=O)N1N=C(c2cccc3ccccc23)CC1c1ccccc1OCC(=O)NO (centres unmarked) [Compound 14p, 2-(2-(1-Acetyl-3-(naphthalen-1-yl)-4,5-dihydro-1H-pyrazol-5-yl)phenoxy)-N-hydroxy acetamide] | 
12 | 68 ± 4 | 82 to 84 | CC(=O)N1N=C(c2ccccc2OCc2ccccc2Br)CC1c1ccccc1OCC(=O)NO (centres unmarked) [Compound 14cc, 2-(2-(1-Acetyl-3-(2-((2-bromobenzyl)oxy)phenyl)-4,5-dihydro-1H-pyrazol-5-yl)phenoxy)-N-hydroxyacetamide] | 
13 | 200 ± 10 | 178 to 180 | COc1cccc(OC)c1C1=NN(C(C)=O)C(c2ccccc2OCC(=O)NO)C1 (centres unmarked) [Compound 14m, 2-(2-(1-Acetyl-3-(2,6-dimethoxyphenyl)-4,5-dihydro-1H-pyrazol-5-yl)phenoxy)-N-hydroxyacetamide] | 
